The results in this text go back to ChEMBL document CHEMBL2331401, “Orally active fumagillin analogues: transformations of a reactive warhead in the gastric environment” (ACS Med Chem Lett, 2013).

Calls of active or inactive are those of the source. No cut-off for these calls is given here.

For series [1], the system named is Rattus norvegicus. The series can be described thus: Inhibition of MetAP2 in Sprague-Dawley rat assessed as free MetAP2 level in thymus at 3 mg/kg, po after 24 hrs by ELISA relative to vehicle-treated control. The series is classed as functional, organism-based. More on the design: dose 3 mg/kg.
Another series concerns HUVEC. Briefly: Antiproliferative activity against human HUVEC cells after 3 days. The series is classed as functional, cell-based. Conditions: 72 h.
Series [2] relates to Rattus norvegicus. Briefly: Inhibition of MetAP2 in Sprague-Dawley rat assessed as free MetAP2 level in liver at 3 mg/kg, po after 24 hrs by ELISA relative to vehicle-treated control. Details: dose 3 mg/kg. The class given is functional, organism-based. (In general: In an ELISA, binding on a coated surface is turned into a signal by an enzyme label.)
Series [3] deals with Methionine aminopeptidase 2 (Homo sapiens) (UniProt P50579). The series can be described thus: Inhibition of MetAP2 (unknown origin) using Met-AMC as substrate assessed as residual activity at 200 nM after 8 hrs.
Chain of Methionine aminopeptidase 2 (Homo sapiens) (P50579 2-478 limits assumed): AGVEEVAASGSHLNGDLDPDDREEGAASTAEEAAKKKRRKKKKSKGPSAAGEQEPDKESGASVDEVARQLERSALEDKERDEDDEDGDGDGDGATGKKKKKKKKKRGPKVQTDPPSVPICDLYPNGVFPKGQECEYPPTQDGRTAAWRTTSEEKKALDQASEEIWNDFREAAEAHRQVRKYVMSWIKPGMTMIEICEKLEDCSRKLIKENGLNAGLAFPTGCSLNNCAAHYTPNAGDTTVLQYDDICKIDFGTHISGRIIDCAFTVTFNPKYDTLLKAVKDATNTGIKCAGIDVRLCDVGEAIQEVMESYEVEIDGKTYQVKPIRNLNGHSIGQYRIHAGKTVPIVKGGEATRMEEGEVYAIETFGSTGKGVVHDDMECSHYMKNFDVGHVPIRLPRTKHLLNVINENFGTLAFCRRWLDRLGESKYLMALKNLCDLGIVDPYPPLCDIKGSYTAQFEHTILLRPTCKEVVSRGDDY
In series [4] the test system is Rattus norvegicus. Briefly: Inhibition of MetAP2 in Sprague-Dawley rat assessed as free MetAP2 level in whole blood at 3 mg/kg, po after 2 to 4 hrs by ELISA relative to vehicle-treated control. The series is classed as functional, organism-based. More on the design: dose 3 mg/kg.
For series [5], the target named is Methionine aminopeptidase 2 (Homo sapiens) (UniProt P50579). Briefly: Inhibition of MetAP2 (unknown origin) using Met-AMC as substrate in MES buffer at pH 6.5 at 200 nM after 8 hrs.
Series [6] shares this target. Briefly: Inhibition of MetAP2 (unknown origin) using Met-AMC as substrate in HEPES buffer at pH 7.5 at 200 nM after 8 hrs.
Series [7] can be described thus: Stability of the compound in MES buffer at pH 6.5 after 8 hrs by LC-MS analysis. The class given is physicochemical. Conditions: pH 6.5, 8 h.
The next series deals with Plasma. The series can be described thus: Drug metabolism in rat plasma assessed as PPI-2458 formation at 4 degC after 1 hr by HPLC/MS/MS analysis. The class given is ADME, cell-free.

As for `CO[C@@H]1[C@H](OC(=O)N[C@@H](C(N)=O)C(C)C)CC[C@]2(O)CO[C@](C)([C@H](O)CC=C(C)C)[C@@H]12`, the inhibition result in the series on Rattus norvegicus [1], in the series with Rattus norvegicus [2] and in the series on Rattus norvegicus [4] was “inactive” throughout. Besides, the half-inhibitory concentration (IC50) in the series on HUVEC is > 30000 nM. For the same molecule, the Activity in series [3] was 107%.
Take `CO[C@@H]1[C@H](OC(=O)N[C@@H](C(N)=O)C(C)C)CC[C@@]2(O)CO[C@](C)([C@H](O)CC=C(C)C)[C@@H]12`: the inhibition result in the series with Rattus norvegicus [1], in the series on Rattus norvegicus [2] and with Rattus norvegicus [4] was “inactive” in each case. In the series with HUVEC, the IC50 is > 30000 nM. For the same molecule, in series [3], the Activity came out at 105%.
For `C=C([C@H](O)CC=C(C)C)[C@H]1[C@H](OC)[C@H](OC(=O)N[C@@H](C(N)=O)C(C)C)CC[C@]1(O)CCl`, the inhibition entry in the series with Rattus norvegicus [1], in the series on Rattus norvegicus [2] and in the series on Rattus norvegicus [4] was “Active” in each case. For the same molecule, half-maximal inhibition in the series with HUVEC (IC50) required 3.3 nM. For the same molecule, the Activity in [3] stood at 58%.
Consider `C=C([C@H](O)CC=C(C)C)[C@H]1[C@H](OC)[C@H](OC(=O)N[C@@H](C(N)=O)C(C)C)CC[C@]12CO2`, for which the inhibition result with Rattus norvegicus [1], in the series with Rattus norvegicus [2] and in the series with Rattus norvegicus [4] was “Active” throughout. The 50% inhibitory concentration (IC50) with HUVEC worked out at 3.1 nM. Besides, in series [3], the Activity was 27%.
Take `CO[C@H]1[C@@H]([C@@]2(C)O[C@@H]2CC=C(C)C)[C@]2(CC[C@H]1OC(=O)N[C@@H](C(N)=O)C(C)C)CO2`: the inhibition result (in series [5]; in the series with Rattus norvegicus [1]; in [6]; with Rattus norvegicus [2]; in the series on Rattus norvegicus [4]) was “Active” each time. This molecule gave an IC50 with HUVEC of 0.18 nM. For the same molecule, the Activity in series [3] was determined as 3%.
Turning to `CO[C@@H]1[C@H](OC(=O)N[C@@H](C(N)=O)C(C)C)CC[C@](O)(CCl)[C@H]1[C@@]1(C)O[C@@H]1CC=C(C)C`, the inhibition result in series [5] is “inactive”. The Stability entry in series [7] is “Stable”; in the series on Plasma, “Unstable”. Also, the inhibition result (in the series with Rattus norvegicus [1]; in [6]; in the series with Rattus norvegicus [2]; with Rattus norvegicus [4]) was “Active” each time. Also, inhibition in the series on HUVEC was half-maximal at 0.15 nM (IC50). The Activity in series [3] was 6%.

The IC50 is the midpoint of a concentration-inhibition curve. The low end stands for higher potency, the high end for lower potency.
